Reference: patent US20130065818A1, “Arylamide Compounds And Compositions And Uses Thereof” (POLYMEDIX, priority 2006, published 2013)
≈ marks a conversion by molar mass, not a printed value. Like-named read-outs stand apart in the source and are kept apart here.

System: E. coli D31
Assay: MIC, control bacteria (Example 8)
Assay type: cell-based
Conditions: for Decrease of activity by addition of 2% lysed horse red blood cells to Mueller-Hinton broth / Decrease of activity by use of HTM broth: Control Bacteria E. coli D31
Procedure: • Mueller-Hinton Broth in tubes was inoculated with 25 ocular isolates of Staphylococcus aureus fluoroquinolone-susceptible, Staphylococcus aureus fluoroquinolone-resistant, Staphylococcus epidermidis (Coagulase-negative Staphylococcus) fluoroquinolone-susceptible, Staphylococcus epidermidis (Coagulase-negative Staphylococcus) fluoroquinolone-resistant, Pseudomonas aeruginosa and Serratia marcescens, plus two controls (Staphylococcus aureus and E. coli) and incubated at 37° C. overnight on a shaker set at 250 rpm.
Control Bacteria—The two control bacteria (Staphylococcus aureus and E. coli) were treated as above.
Control Bacteria Set #1—this set of control bacteria were treated as the Streptococcus pneumoniae, Streptococcus viridans and Moraxella species (including Moraxella catarrhalis) test isolates above; the control bacteria underwent the same conditions as the test Streptococcus pneumoniae, Streptococcus viridans and Moraxella species (including Moraxella catarrhalis) isolates. This set of control bacteria was to determine whether there was a difference in the MICs by performing the MIC determinations in 2% lysed horse red blood cells with the standard method performed in Mueller-Hinton broth.
Control Bacteria Set #2—the control bacteria were added to 5 ml of Mueller-Hinton Broth without the 2% lysed horse red blood cells to achieve the standard inoculum concentration. This set of control bacteria is the normal control to determine whether the compounds are at the target MICs.
Control Bacteria Set #1—this set of control bacteria were treated as the Haemophilus influenzae test isolates above; the control bacteria underwent the same conditions as the test Haemophilus influenzae isolates. This set of control bacteria is to determine whether there was a difference in the MICs by performing the MIC determinations in HTM broth with the standard method performed in Mueller-Hinton broth.
Control Bacteria Set #2—the control bacteria were added to 5 ml of Mueller-Hinton Broth to achieve the standard inoculum concentration. This set of control bacteria is the normal control to determine whether the compounds are at the target MICs.
Ninety μl of the bacterial suspensions was dispensed in each well from column 1 to column 12. Each bacterial isolate was placed in one row of a 96 well polypropylene plate containing the test agents. The plates were placed on shaker at 15 minutes at room temperature, and then incubated at 37° C. overnight. MICs were determined visually as the lowest concentration of drug that inhibits visible bacterial growth.

[1] = Control Bacteria Set #1, run with Haemophilus influenzae MIC test, read-out: MIC
[2] = E. coli D31, Control for MIC Test SA-FQR, first batch
[3] = E. coli D31, Control for MIC Test SA-FQS, first batch
[4] = E. coli D31, new batches, Control Only 1
[5] = E. coli D31, new batches, Control Only 2
[6] = E. coli D31, new batches, Control Only 3
[7] = E. coli D31, new batches, Control Only 4
[8] = Escherichia coli, D31, Control Bacteria Set #1, run with Moraxella MIC test, read-out: MIC
[9] = Escherichia coli, D31, Control Only 1, read-out: MIC of control bacteria on day of MIC testing
[10] = Escherichia coli, D31, Control Only 2, read-out: MIC of control bacteria on day of MIC testing
[11] = Escherichia coli, D31, Control Only 3, read-out: MIC of control bacteria on day of MIC testing
[12] = Escherichia coli, D31, Control Only 4, read-out: MIC of control bacteria on day of MIC testing
[13] = Escherichia coli, D31, E. coli D31, Control Bacteria Set #1 (same conditions as test isolates), run with Streptococcus pneumoniae MIC test, read-out: MIC
[14] = Escherichia coli, D31, E. coli D31, Control Bacteria Set #1 (same conditions as test isolates), run with Streptococcus viridans group MIC test, read-out: MIC
[15] = Escherichia coli, D31, E. coli D31, Control Bacteria Set #2 (Mueller-Hinton Broth), run with Streptococcus pneumoniae MIC test, read-out: MIC
[16] = Escherichia coli, D31, E. coli D31, Control Bacteria Set #2 (Mueller-Hinton Broth), run with Streptococcus viridans group MIC test, read-out: MIC
[17] = Escherichia coli, D31, E. coli D31, control bacteria run with Pseudomonas aeruginosa MIC test, read-out: MIC
[18] = Escherichia coli, D31, E. coli D31, control bacteria run with S. aureus fluoroquinolone-resistant MIC test, read-out: MIC
[19] = Escherichia coli, D31, E. coli D31, control bacteria run with S. aureus fluoroquinolone-susceptible MIC test, read-out: MIC
[20] = Escherichia coli, D31, E. coli D31, control bacteria run with S. epidermidis fluoroquinolone-resistant MIC test, read-out: MIC
[21] = Escherichia coli, D31, E. coli D31, control bacteria run with S. epidermidis fluoroquinolone-susceptible MIC test, read-out: MIC
[22] = Escherichia coli, D31, E. coli D31, control bacteria run with Serratia marcescens MIC test, read-out: MIC
[23] = Escherichia coli, D31, E. coli D31, MIC previously obtained (target MIC), printed in parentheses, read-out: MIC for Control Bacteria within the parentheses
[24] = Escherichia coli, D31, E. coli D31, read-out: MIC
[25] = Escherichia coli, D31, control for MIC test HI (Control Bacteria Set #2), read-out: MIC of control bacteria on day of MIC testing
[26] = Escherichia coli, D31, control for MIC test MS (Control Bacteria Set #2), read-out: MIC of control bacteria on day of MIC testing
[27] = Escherichia coli, D31, control for MIC test PA, read-out: MIC of control bacteria on day of MIC testing
[28] = Escherichia coli, D31, control for MIC test SA-FQR, read-out: MIC of control bacteria on day of MIC testing
[29] = Escherichia coli, D31, control for MIC test SA-FQS, read-out: MIC of control bacteria on day of MIC testing
[30] = Escherichia coli, D31, control for MIC test SE-FQR, read-out: MIC of control bacteria on day of MIC testing
[31] = Escherichia coli, D31, control for MIC test SE-FQS, read-out: MIC of control bacteria on day of MIC testing
[32] = Escherichia coli, D31, control for MIC test SM, read-out: MIC of control bacteria on day of MIC testing
[33] = Escherichia coli, D31, control for MIC test SP, read-out: MIC of control bacteria on day of MIC testing
[34] = Escherichia coli, D31, control for MIC test SV, read-out: MIC of control bacteria on day of MIC testing
[35] = Escherichia coli, D31, reference MIC printed in parentheses beside the day's control value, read-out: MIC for Control Bacteria (within the parentheses)

SMILES | Decrease of activity by addition of 2% lysed horse red blood cells to Mueller-Hinton broth | Decrease of activity by use of HTM broth | MIC [1] [mg/L] | MIC [2] [mg/L] | MIC [3] [mg/L] | MIC [4] [mg/L] | MIC [5] [mg/L] | MIC [6] [mg/L] | MIC [7] [mg/L] | MIC [8] [mg/L] | MIC [9] [mg/L] | MIC [10] [mg/L] | MIC [11] [mg/L] | MIC [12] [mg/L] | MIC [13] [mg/L] | MIC [14] [mg/L] | MIC [15] [mg/L] | MIC [16] [mg/L] | MIC [17] [mg/L] | MIC [18] [mg/L] | other results
N=C(N)NCCCCC(=O)Nc1cc(C(F)(F)F)cc(NC(=O)c2cc(C(=O)Nc3cc(C(F)(F)F)cc(NC(=O)CCCCNC(=N)N)c3O[C@@H]3CCNC3)ncn2)c1O[C@@H]1CCNC1 [Oligomer 4] | approximately 4 fold | approximately 8 fold | 8 (≈ 8.54 µM) | 1 (≈ 1.07 µM) | 1 (≈ 1.07 µM) | 1 (≈ 1.07 µM) | 1 (≈ 1.07 µM) | 1 (≈ 1.07 µM) | 1 (≈ 1.07 µM) | 4 (≈ 4.27 µM) | 1 | 1 | 1 | 1 | 2 (≈ 2.13 µM) | 2 (≈ 2.13 µM) | 0.5 (≈ 0.534 µM) | 0.5 (≈ 0.534 µM) | 0.5 (≈ 0.534 µM) | 1 (≈ 1.07 µM) | MIC (E. coli Lab Strain D31): 0.78 mg/L (≈ 0.833 µM); MIC [19]: 1 mg/L (≈ 1.07 µM); MIC [20]: 1 mg/L (≈ 1.07 µM); MIC [21]: 1 mg/L (≈ 1.07 µM); MIC [22]: 0.5 mg/L (≈ 0.534 µM); MIC [23]: 0.78 mg/L (≈ 0.833 µM); MIC [24]: 0.78 mg/L (≈ 0.833 µM); MIC [25]: 1 mg/L; MIC [26]: 1 mg/L; MIC [27]: 0.5 mg/L; MIC [28]: 1 mg/L; MIC [29]: 1 mg/L; MIC [30]: 1 mg/L; MIC [31]: 1 mg/L; MIC [32]: 0.5 mg/L; MIC [33]: 0.5 mg/L; MIC [34]: 0.5 mg/L; MIC [35]: 0.78 mg/L (≈ 0.833 µM)
N=C(N)NCCCCC(=O)Nc1cc(C(F)(F)F)cc(NC(=O)c2cnc(C(=O)Nc3cc(C(F)(F)F)cc(NC(=O)CCCCNC(=N)N)c3SCCN)cn2)c1SCCN [Oligomer 5] | increase or have no effect | no effect | 16 (≈ 17.4 µM) | 4 (≈ 4.36 µM) | 16 (≈ 17.4 µM) | 8 (≈ 8.72 µM) | 8 (≈ 8.72 µM) | 8 (≈ 8.72 µM) | 16 (≈ 17.4 µM) | 2 (≈ 2.18 µM) | 8 | 8 | 8 | 16 | 2 (≈ 2.18 µM) | 2 (≈ 2.18 µM) | 16 (≈ 17.4 µM) | 16 (≈ 17.4 µM) | 8 (≈ 8.72 µM) | 4 (≈ 4.36 µM) | MIC [19]: 16 mg/L (≈ 17.4 µM); MIC [20]: 4 mg/L (≈ 4.36 µM); MIC [21]: 4 mg/L (≈ 4.36 µM); MIC [22]: 4 mg/L (≈ 4.36 µM); MIC [23]: 1.56 mg/L (≈ 1.7 µM); MIC [24]: 1.56 mg/L (≈ 1.7 µM); MIC [25]: 16 mg/L; MIC [26]: 16 mg/L; MIC [27]: 8 mg/L; MIC [28]: 4 mg/L; MIC [29]: 16 mg/L; MIC [30]: 4 mg/L; MIC [31]: 4 mg/L; MIC [32]: 4 mg/L; MIC [33]: 16 mg/L; MIC [34]: 16 mg/L; MIC [35]: 1.56 mg/L (≈ 1.7 µM)
